Measured values from patent US11793849B2, “Method of Chinese herbal medicine extract used for treating multiple diseases caused by drug resistant bacteria infection” (priority 2016, dated 2023).
Values after ≈ are worked out from the molar mass of the structure shown. Where two headings read alike, the source gives them in different places.

Assays:
MDRAB = assay: MIC determination, microdilution broth method; format: cell-based, Acinetobacter baumannii
Procedure: (§1) Determination methods of a Minimal Inhibitory Concentration (MIC) and a Minimum Bactericidal Concentration (MBC) of a test product: the MIC and the MBC of the Pithecellobium clypearia Benth water or ethanol extract to the MDRAB are determined by a microdilution broth method. And it is operated by referring to the microdilution broth method recommended by National Committee for Clinical Laboratory Standards (NCCLS).

MDRPA = assay: MIC determination, microdilution broth method;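 also: broth microdilution per NCCLS recommendations, testing Pithecellobium clypearia water or ethanol extracts against multidrug-resistant Pseudomonas aeruginosa, with MIC50 and MIC90 derived statistically from individual MICs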
Procedure: as §1
By determining the MIC and the MBC of the drug and making statistics of the data to obtain MIC50, MIC90, MBC50 and MBC90, the effect of the MDRA resistance of the drug is evaluated.
Test method: the MDRPA (serial No.: P1-P20) strains are tested and are evaluated with reference to the method in the first embodiment.

ATCC27853 = assay: MIC determination, control strain; format: cell-based
Procedure: Determination methods of a Minimal Inhibitory Concentration (MIC) and a Minimum Bactericidal Concentration (MBC) of a test product: the MIC and the MBC of the Pithecellobium clypearia Benth water or ethanol extract to the MDRAB are determined by a microdilution broth method.

[1] = single use, 20 MDRABs, EA=10% ethanol extract
[2] = single use, 20 MDRABs, EA=water extract
[3] = single use, 20 MDRABs, section of the 95% ethanol extract
[4] = 20 MDRPAs, EA = 60% ethanol extract
[5] = 20 MDRPAs, EA = 95% ethanol extract
[6] = MDRPAs P1-P20, single use, EA=P. clypearia 10% ethanol extract
[7] = MDRPAs P1-P20, single use, EA=P. clypearia water extract
[8] = single use, 20 MDRPAs, section of the 10% ethanol extract
[9] = single use, 20 MDRPAs, section of the 60% ethanol extract
[10] = single use, 20 MDRPAs, section of the 95% ethanol extract

C[C@H]1COc2c(N3CCN(C)CC3)c(F)cc3c(=O)c(C(=O)O)cn1c23 [LVX, Levofloxacin]
MIC (MDRAB; Acinetobacter baumannii, strain A19, single use, EA=10% ethanol extract, read-out: MIC): 16 µg/mL (≈ 44.3 µM) | MIC (MDRAB; Acinetobacter baumannii, strain A19, single use, EA=water extract, read-out: MIC): 16 µg/mL (≈ 44.3 µM) | MIC (MDRAB; Acinetobacter baumannii, strain A20, EA=60% ethanol extract, read-out: MIC): 16 µg/mL (≈ 44.3 µM) | MIC (MDRAB; Acinetobacter baumannii, strain A20, EA=95% ethanol extract, read-out: MIC): 16 µg/mL (≈ 44.3 µM) | MIC (MDRAB; Acinetobacter baumannii, strain A20, EA=P. clypearia 95% ethanol extract, read-out: single-use MIC): 16 µg/mL (≈ 44.3 µM) | MIC (MDRAB; Acinetobacter baumannii, strain A20, single use, EA=10% ethanol extract, read-out: MIC): 16 µg/mL (≈ 44.3 µM) | MIC (MDRAB; Acinetobacter baumannii, strain A20, single use, EA=water extract, read-out: MIC): 16 µg/mL (≈ 44.3 µM) | MIC (MDRAB; Acinetobacter baumannii, strain AS, EA=P. clypearia 95% ethanol extract, read-out: single-use MIC): 4 µg/mL (≈ 11.1 µM) | MIC50 (MDRAB; Acinetobacter baumannii, single use, 20 MDRABs, section of the 60% ethanol extract, read-out: MIC50): 8 µg/mL (≈ 22.1 µM) | MIC90 (MDRAB; Acinetobacter baumannii, single use, 20 MDRABs, section of the 60% ethanol extract, read-out: MIC90): 32 µg/mL (≈ 88.6 µM) | MIC50 (MDRAB; MDRABs, EA=60% ethanol extract): 8 µg/mL (≈ 22.1 µM) | MIC90 (MDRAB; MDRABs, EA=60% ethanol extract): 32 µg/mL (≈ 88.6 µM) | MIC Range (MDRAB; MDRABs, EA=60% ethanol extract): 0.5 to 32 µg/mL | MIC50 (MDRAB; MDRABs, EA=95% ethanol extract): 8 µg/mL (≈ 22.1 µM) | MIC90 (MDRAB; MDRABs, EA=95% ethanol extract): 32 µg/mL (≈ 88.6 µM) | MIC Range (MDRAB; MDRABs, EA=95% ethanol extract): 0.5 to 32 µg/mL | MIC50 (MDRAB; [1]): 8 µg/mL (≈ 22.1 µM) | MIC90 (MDRAB; [1]): 32 µg/mL (≈ 88.6 µM) | MIC Range (MDRAB; [1]): 0.5 to 32 µg/mL | MIC50 (MDRAB; [2]): 8 µg/mL (≈ 22.1 µM) | MIC90 (MDRAB; [2]): 32 µg/mL (≈ 88.6 µM) | MIC Range (MDRAB; [2]): 0.5 to 32 µg/mL | MIC50 (MDRAB; [3]): 8 µg/mL (≈ 22.1 µM) | MIC90 (MDRAB; [3]): 32 µg/mL (≈ 88.6 µM) | MIC50 (MDRPA; [4]): 4 µg/mL (≈ 11.1 µM) | MIC90 (MDRPA; [4]): 32 µg/mL (≈ 88.6 µM) | MIC Range (MDRPA; [4]): 0.5 to 128 µg/mL | MIC50 (MDRPA; [5]): 4 µg/mL (≈ 11.1 µM) | MIC90 (MDRPA; [5]): 32 µg/mL (≈ 88.6 µM) | MIC Range (MDRPA; [5]): 0.5 to 128 µg/mL | MIC50 (MDRPA; [6]): 4 µg/mL (≈ 11.1 µM) | MIC90 (MDRPA; [6]): 32 µg/mL (≈ 88.6 µM) | MIC Range (MDRPA; [6]): 0.5 to 128 µg/mL | MIC50 (MDRPA; [7]): 4 µg/mL (≈ 11.1 µM) | MIC90 (MDRPA; [7]): 32 µg/mL (≈ 88.6 µM) | MIC Range (MDRPA; [7]): 0.5 to 128 µg/mL | MIC50 (MDRPA; Pseudomonas aeruginosa): 4 µg/mL (≈ 11.1 µM) | MIC90 (MDRPA; Pseudomonas aeruginosa): 32 µg/mL (≈ 88.6 µM) | MIC (MDRPA; Pseudomonas aeruginosa, read-out: MIC (single use), strain P1, EA=P. clypearia 10% ethanol extract): 32 µg/mL (≈ 88.6 µM) | MIC (MDRPA; Pseudomonas aeruginosa, read-out: MIC (single use), strain P1, EA=P. clypearia water extract): 32 µg/mL (≈ 88.6 µM) | MIC (MDRPA; Pseudomonas aeruginosa, read-out: MIC (single use), strain P2, EA=P. clypearia 10% ethanol extract): 4 µg/mL (≈ 11.1 µM) | MIC (MDRPA; Pseudomonas aeruginosa, read-out: MIC (single use), strain P2, EA=P. clypearia water extract): 4 µg/mL (≈ 11.1 µM) | MIC (MDRPA; Pseudomonas aeruginosa, read-out: MIC (single use), strain P3, EA=P. clypearia 10% ethanol extract): 8 µg/mL (≈ 22.1 µM) | MIC (MDRPA; Pseudomonas aeruginosa, read-out: MIC (single use), strain P3, EA=P. clypearia water extract): 8 µg/mL (≈ 22.1 µM) | MIC (MDRPA; Pseudomonas aeruginosa, read-out: MIC (single use), strain P4, EA=P. clypearia 10% ethanol extract): 8 µg/mL (≈ 22.1 µM) | MIC (MDRPA; Pseudomonas aeruginosa, read-out: MIC (single use), strain P4, EA=P. clypearia water extract): 8 µg/mL (≈ 22.1 µM) | MIC (MDRPA; Pseudomonas aeruginosa, read-out: MIC (single use), strain P5, EA=P. clypearia 10% ethanol extract): 1 µg/mL (≈ 2.77 µM) | MIC (MDRPA; Pseudomonas aeruginosa, read-out: MIC (single use), strain P5, EA=P. clypearia water extract): 1 µg/mL (≈ 2.77 µM) | MIC (MDRPA; Pseudomonas aeruginosa, read-out: MIC (single use), strain P6, EA=P. clypearia 10% ethanol extract): 0.5 µg/mL (≈ 1.38 µM) | MIC (MDRPA; Pseudomonas aeruginosa, read-out: MIC (single use), strain P6, EA=P. clypearia water extract): 0.5 µg/mL (≈ 1.38 µM) | MIC (MDRPA; Pseudomonas aeruginosa, read-out: MIC (single use), strain P7, EA=P. clypearia 10% ethanol extract): 32 µg/mL (≈ 88.6 µM) | MIC (MDRPA; Pseudomonas aeruginosa, read-out: MIC (single use), strain P7, EA=P. clypearia water extract): 32 µg/mL (≈ 88.6 µM) | MIC (MDRPA; Pseudomonas aeruginosa, read-out: MIC (single use), strain P8, EA=P. clypearia 10% ethanol extract): 1 µg/mL (≈ 2.77 µM) | MIC (MDRPA; Pseudomonas aeruginosa, read-out: MIC (single use), strain P8, EA=P. clypearia water extract): 1 µg/mL (≈ 2.77 µM) | MIC (MDRPA; Pseudomonas aeruginosa, read-out: MIC (single use), strain P9, EA=P. clypearia 10% ethanol extract): 4 µg/mL (≈ 11.1 µM) | MIC (MDRPA; Pseudomonas aeruginosa, read-out: MIC (single use), strain P9, EA=P. clypearia water extract): 4 µg/mL (≈ 11.1 µM) | MIC (MDRPA; Pseudomonas aeruginosa, read-out: MIC (single use), strain P10, EA=P. clypearia 10% ethanol extract): 128 µg/mL (≈ 354 µM) | MIC (MDRPA; Pseudomonas aeruginosa, read-out: MIC (single use), strain P10, EA=P. clypearia water extract): 128 µg/mL (≈ 354 µM) | MIC (MDRPA; Pseudomonas aeruginosa, read-out: MIC (single use), strain P11, EA=P. clypearia 10% ethanol extract): 2 µg/mL (≈ 5.53 µM) | MIC (MDRPA; Pseudomonas aeruginosa, read-out: MIC (single use), strain P11, EA=P. clypearia water extract): 2 µg/mL (≈ 5.53 µM) | MIC (MDRPA; Pseudomonas aeruginosa, read-out: MIC (single use), strain P12, EA=P. clypearia 10% ethanol extract): 1 µg/mL (≈ 2.77 µM) | MIC (MDRPA; Pseudomonas aeruginosa, read-out: MIC (single use), strain P12, EA=P. clypearia water extract): 1 µg/mL (≈ 2.77 µM) | MIC (MDRPA; Pseudomonas aeruginosa, read-out: MIC (single use), strain P13, EA=P. clypearia 10% ethanol extract): 2 µg/mL (≈ 5.53 µM) | MIC (MDRPA; Pseudomonas aeruginosa, read-out: MIC (single use), strain P13, EA=P. clypearia water extract): 2 µg/mL (≈ 5.53 µM) | MIC (MDRPA; Pseudomonas aeruginosa, read-out: MIC (single use), strain P14, EA=P. clypearia 10% ethanol extract): 32 µg/mL (≈ 88.6 µM) | MIC (MDRPA; Pseudomonas aeruginosa, read-out: MIC (single use), strain P14, EA=P. clypearia water extract): 32 µg/mL (≈ 88.6 µM) | MIC (MDRPA; Pseudomonas aeruginosa, read-out: MIC (single use), strain P15, EA=P. clypearia 10% ethanol extract): 2 µg/mL (≈ 5.53 µM) | MIC (MDRPA; Pseudomonas aeruginosa, read-out: MIC (single use), strain P15, EA=P. clypearia water extract): 2 µg/mL (≈ 5.53 µM) | MIC (MDRPA; Pseudomonas aeruginosa, read-out: MIC (single use), strain P16, EA=P. clypearia 10% ethanol extract): 32 µg/mL (≈ 88.6 µM) | MIC (MDRPA; Pseudomonas aeruginosa, read-out: MIC (single use), strain P16, EA=P. clypearia water extract): 32 µg/mL (≈ 88.6 µM) | MIC (MDRPA; Pseudomonas aeruginosa, read-out: MIC (single use), strain P17, EA=P. clypearia 10% ethanol extract): 4 µg/mL (≈ 11.1 µM) | MIC (MDRPA; Pseudomonas aeruginosa, read-out: MIC (single use), strain P17, EA=P. clypearia water extract): 4 µg/mL (≈ 11.1 µM) | MIC (MDRPA; Pseudomonas aeruginosa, read-out: MIC (single use), strain P18, EA=P. clypearia 10% ethanol extract): 4 µg/mL (≈ 11.1 µM) | MIC (MDRPA; Pseudomonas aeruginosa, read-out: MIC (single use), strain P18, EA=P. clypearia water extract): 4 µg/mL (≈ 11.1 µM) | MIC (MDRPA; Pseudomonas aeruginosa, read-out: MIC (single use), strain P19, EA=P. clypearia 10% ethanol extract): 16 µg/mL (≈ 44.3 µM) | MIC (MDRPA; Pseudomonas aeruginosa, read-out: MIC (single use), strain P19, EA=P. clypearia water extract): 16 µg/mL (≈ 44.3 µM) | MIC (MDRPA; Pseudomonas aeruginosa, read-out: MIC (single use), strain P20, EA=P. clypearia 10% ethanol extract): 4 µg/mL (≈ 11.1 µM) | MIC (MDRPA; Pseudomonas aeruginosa, read-out: MIC (single use), strain P20, EA=P. clypearia water extract): 4 µg/mL (≈ 11.1 µM) | MIC50 (MDRPA; [8]): 4 µg/mL (≈ 11.1 µM) | MIC90 (MDRPA; [8]): 32 µg/mL (≈ 88.6 µM) | MIC50 (MDRPA; [9]): 4 µg/mL (≈ 11.1 µM) | MIC90 (MDRPA; [9]): 32 µg/mL (≈ 88.6 µM) | MIC50 (MDRPA; [10]): 4 µg/mL (≈ 11.1 µM) | MIC90 (MDRPA; [10]): 32 µg/mL (≈ 88.6 µM) | MIC (ATCC27853; EA=10% ethanol extract, read-out: MIC): 1 µg/mL (≈ 2.77 µM) | MIC (ATCC27853; EA=60% ethanol extract, read-out: MIC): 1 µg/mL (≈ 2.77 µM) | MIC (ATCC27853; EA=95% ethanol extract, read-out: MIC): 1 µg/mL (≈ 2.77 µM) | MIC (ATCC27853; EA=P. clypearia 10% ethanol extract, read-out: MIC (single use)): 1 µg/mL (≈ 2.77 µM) | MIC (ATCC27853; EA=P. clypearia water extract, read-out: MIC (single use)): 1 µg/mL (≈ 2.77 µM) | MIC (ATCC27853; EA=water extract, read-out: MIC): 1 µg/mL (≈ 2.77 µM) | MIC (ATCC27853; single use, EA = 60% ethanol extract, read-out: MIC): 1 µg/mL (≈ 2.77 µM) | MIC (ATCC27853; single use, EA = 95% ethanol extract, read-out: MIC): 1 µg/mL (≈ 2.77 µM)
